Laboratory results published in PubChem BioAssay (NCI).
“And” between values parts separate entries of the source, which are not always exact repeats. Equal entries are not always repeated.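 Results reflect a 48-hour exposure of cells in 96-well plates to compound at five concentrations. Abbreviation: GI50, concentration required for 50% inhibition of growth. The concentration for full growth arrest is given as TGI.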

How the values were obtained:
Test in all cases: inhibition of tumour cell growth, NCI panel, 48 h
RXF 393 renal = test system: RXF 393 renal
CAKI-1 renal = test system: CAKI-1 renal
A549 NSCLC = test system: A549 NSCLC
LOX IMVI melanoma = test system: LOX IMVI melanoma
SF-539 CNS = test system: SF-539 CNS
SK-MEL-5 melanoma = test system: SK-MEL-5 melanoma
NCI-H522 lung = test system: NCI-H522 lung
HOP-92 NSCLC = test system: HOP-92 NSCLC
PC-3 prostate = test system: PC-3 prostate
UO-31 renal = test system: UO-31 renal

| Structure (SMILES) | TGI (RXF 393 renal) | TGI (CAKI-1 renal) | TGI (A549 NSCLC) | TGI (LOX IMVI melanoma) | TGI (SF-539 CNS) | TGI (SK-MEL-5 melanoma) | TGI (NCI-H522 lung) | TGI (HOP-92 NSCLC) | TGI (PC-3 prostate) | TGI (UO-31 renal) | GI50 (RXF 393 renal) | GI50 (CAKI-1 renal) [µM] | GI50 (A549 NSCLC) | GI50 (LOX IMVI melanoma) | GI50 (SF-539 CNS) | GI50 (SK-MEL-5 melanoma) | GI50 (NCI-H522 lung) | GI50 (HOP-92 NSCLC) | GI50 (PC-3 prostate) | GI50 (UO-31 renal) |
| --- | --- | --- | --- | --- | --- | --- | --- | --- | --- | --- | --- | --- | --- | --- | --- | --- | --- | --- | --- | --- |
| COc1ccc(N2C(=O)[C@H]3CC(C)c4c([nH]c5ccccc45)[C@H]3C2=O)cc1 (stereo not given in full) | 9.75 µM | 27.3 µM | > 90.7 µM | 63.8 µM | 10.5 µM | 36.6 µM | 4.24 µM | 23.3 µM | 23.6 µM | 83.8 µM |  |  |  |  |  |  |  |  |  |  |
| COc1ccccc1/C=C/C(=O)c1ccccc1 | 16.1 µM | 18.6 µM | 38.8 µM | 5.07 µM | 30.8 µM | 25.7 µM | 17.4 µM | 30.7 µM | 28 µM | 17.9 µM | 5.94 µM | 6.3 | 17.9 µM | 2.06 µM | 16.4 µM | 12.7 µM | 4.11 µM | 6.3 µM | 5.65 µM | 4.69 µM |
| CC[PH+](CC)CC.O=COC1OC([S-])C(OC=O)C(OC=O)C1OC=O.[Au+] (stereo not given) | 2.72 µM | 3.08 µM |  | 2.41 µM | 2.37 µM | 2.63 µM | 3.97 µM | 3.66 µM | 3.54 µM | 3.05 µM | 1.35 µM | 1.71 |  | 0.902 µM | 1.14 µM | 1.27 µM | 1.17 µM | 2.04 µM | 1.66 µM | 1.69 µM |
| Cc1cc(S(=O)(=O)NC#N)c(S/C(=N\Nc2ccc([N+](=O)[O-])cc2)c2ccc(Cl)cc2)cc1Cl | > 100 µM | > 100 µM | > 100 µM | > 100 µM | 28.9 µM | 42.3 µM | 89.5 µM | 96.9 µM | > 100 µM | > 100 µM | 34.4 µM | 36.1 | 52.6 µM | 30.1 µM | 13.7 µM | 18.5 µM | 21.8 µM | 19.4 µM | 33.6 µM | 34 µM |
| Cc1ccc(-c2csc(NC(=O)CN3CCN(c4cc5c(cc4F)c(=O)c(C(=O)O)cn5C4CC4)CC3)n2)cc1 | 17.8 µM |  | 13.9 µM | 29.2 µM | 18.2 µM | 2.89 µM | 3.09 µM | 5.13 µM | > 100 µM | 41.1 µM | 0.633 µM |  | 0.433 µM | 0.482 µM | 0.819 µM | 1.02 µM | 0.322 µM | 1.13 µM | 0.504 µM | 1.04 µM |
| Cc1cc(Cl)ccc1Nc1nc(C(F)(F)F)ccc1C(=O)N/N=C/c1ccc([N+](=O)[O-])cc1 | 3.22 µM | 11.4 µM | 5.54 µM |  | 14.4 µM | 4.08 µM | > 20.5 µM | 5.47 µM |  | 6.93 µM | 0.781 µM | 2.24 | 1.07 µM | 1.16 µM | 2.65 µM | 1.87 µM | 1.55 µM | 1.34 µM | 0.598 µM | 1.48 µM |
| CCOc1cc(/C=N\Nc2nnc(C)n2N)c(C)cc1N(CCCl)CCCl | 17.7 µM | 9.44 µM | > 20.6 µM | 11.2 µM | 17.4 µM | 1.05 µM | 5.8 µM | 1.12 µM | 7.41 µM | 11.8 µM | 1.2 µM | 1.31 | 0.638 µM | 0.349 µM | 1.29 µM | 0.259 µM | 0.461 µM | 0.163 µM | 0.927 µM | 1.3 µM |
| CCn1c(-c2nonc2N)nc2c(C#CC(C)(C)O)nc(OCCNC)cc21 | 11 µM | > 25 µM | > 25 µM | > 25 µM | 20.7 µM | 12 µM | 9.72 µM | 14.5 µM | > 25 µM | > 25 µM | 4.13 µM | > 18.2 | 8.27 µM | 6.88 µM | 6.11 µM | 5.19 µM | 4.98 µM | 4.59 µM | 6.88 µM | 8.9 µM |
| COc1ccc2[nH]c(O)c(C(=Nc3ccc(N(C)C(=O)CN4CCN(C)CC4)cc3)c3ccccc3)c2c1 | 2.36 µM | 5.92 µM | 14.1 µM | 2.19 µM | 2.27 µM | 3.43 µM | 8.96 µM | 5.55 µM | 17.5 µM | 8.45 µM | 1.04 µM | 0.847 | 2.73 µM | 1.02 µM | 1.04 µM | 1.75 µM | 2.52 µM | 0.436 µM | 3.52 µM | 1.45 µM |
| COC(=O)c1nc(Cl)nc(Cl)c1Cl | 28.2 µM | 32.1 µM | > 100 µM | 29.6 µM | 75.3 µM | 35.1 µM | 36.5 µM | 42.9 µM | 34.9 µM | 35.7 µM |  |  |  |  |  |  |  |  |  |  |
| C=CC(=O)Nc1cc2c(Nc3ccc(F)c(Cl)c3)ncnc2cc1OCCCN1CCOCC1 | 2.82 µM and 6.23 µM | 2.67 µM and > 10 µM | 17 µM and > 10 µM | 2.7 µM and 3.32 µM | 3.5 µM and > 10 µM | 13.3 µM and > 10 µM | 2.37 µM and 1.98 µM | 2.49 µM and 5.9 µM | 9.85 µM and > 10 µM | 12.9 µM and > 8.65 µM | 1.32 µM and 1.88 µM |  | 2.37 µM and 5.1 µM | 1.29 µM and 1.69 µM | 1.58 µM and 3.89 µM | 3.3 µM and > 7.32 µM | 0.546 µM and 0.119 µM | 0.534 µM and 0.551 µM | 2.76 µM and 4.33 µM | 0.288 µM and 0.103 µM |
| COc1ccc(Cn2c3c(cc(OS(=O)(=O)C(F)(F)F)c2=O)Cc2ccccc2-3)cc1 | 50 µM and > 100 µM | 50 µM and > 100 µM | 50 µM and > 100 µM | 50 µM and > 100 µM | 50 µM and > 100 µM | 26 µM and 43.9 µM | 50 µM and > 100 µM | 50 µM and > 100 µM | > 100 µM | 50 µM and > 100 µM |  | 53 | 9.95 µM | 6.82 µM | 5.29 µM | 7.3 µM | 7.24 µM | 17.6 µM | 26.7 µM | 9.37 µM |
| CN(C)CCCNC(=O)c1ccc2c(c1)oc1cc3ccccc3c(=O)n12 | 18.2 µM | 28.6 µM | 16 µM | 17.9 µM |  | 13 µM | 21.8 µM | > 50 µM | > 50 µM | 20.2 µM | 6.85 µM | 11 | 5.98 µM | 9.4 µM |  | 6.1 µM | 9.33 µM | > 50 µM | 31.7 µM | 8.75 µM |
